≈ marks a conversion by molar mass, not a printed value. Where two headings read alike, the source gives them in different places. Starred links: 1 amine or outer side, 2 acyl side, 3 side chain; linkers in the order of their positions; H or OH if unused. Positions of bridges follow the written chain, without caps; N, C: chain ends. Non-standard residues stand in square brackets, D forms with d. Residues, ends and D or L forms follow the SMILES beside them. X3 = CC(C)CCCCCCC[C@H](CC(=O)[*:1])O[*:2]; X4 = CCCCCCC=CC[C@H](CC(=O)[*:1])O[*:2]; Val(3-OH) = CC(C)(O)[C@H](N)C(=O)O; X1 = C/C=C(/N[*:1])C(=O)[*:2]; Dab = NCC[C@H](N)C(=O)O; Dap = NC[C@H](N)C(=O)O
Experiments:
[1] = system: P. aeruginosa; format: cell-based, Pseudomonas aeruginosa
Text: (§1) 2015. M7-A10. Methods for dilution antimicrobial susceptibility tests for bacteria that grow aerobically, 10th ed. Approved standard. CLSI, Wayne, Pa.).
(§2) A) In the broth micro-dilution method, the test media were either AM3 Broth (BD Difco Ltd) mixed with phosphate buffered saline (PBS, Amresco LLC, Solon, USA) in 1:4 ratio (E. colt A. baumannii, Enterobacter cloacae, Klebsiella pneumonia and P. aeruginosa), AM3 Broth mixed with PBS in 1:1 ratio (S. aureus) or Malt Extract (ME; 15 g Malt Extract Dico Ltd. in 1000 mL deionized H2O; Aspergillus fumigatus). Prior to MIC-tests, the bacterial cell concentration/fungal spore concentration was adjusted to between 1 and 5×10^5 cells/spores per mL. […] Afterwards, suspensions of pathogen cells in the appropriate medium were dispensed to the wells of microtiter plates and the growth of pathogens were monitored after 16 to 20 h of incubation at 37° C. in the dark. Positive control comprised respective pathogen cells suspended in untreated sterile appropriate media without addition of compounds(s) and negative control comprised the medium only. The MIC was defined as the lowest concentration of each compound with no visible growth of pathogen. All MIC tests were performed in duplicate and/or triplicate and repeated at least twice.

[2] = system: E. cloacae; format: cell-based, Enterobacter cloacae
Text: as §1, §2

[3] = system: S. aureus; format: cell-based, Staphylococcus aureus
Text: as §1, §2

[4] = system: K. pneumoniae; format: cell-based, Klebsiella pneumonia
Text: as §1, §2

[5] = system: A. baumannii; format: cell-based, Acinetobacter baumannii
Text: as §1, §2

[6] = system: E. coli; format: cell-based, Escherichia coli
Text: as §1, §2

[7] = system: HepG2
Protocol: IC50, haemolysis rate and frequency of resistance (FoR, Table 4) was determined using standard protocols by different CROs.

[8] = method A, only lower limit of concentration range shown ("16" means "16-32")

Row | Compound | MIC P. aeruginosa LMG6395 [1] [µg/mL] | MIC E. cloacae LMG2783T [2] [µg/mL] | MIC S. aureus LMG15975 [3] [µg/mL] | MIC K. pneumonia LMG20218 [4] [µg/mL] | MIC A. baumannii LMG1041T [5] [µg/mL] | MIC E. coli LMG15862 [6] [µg/mL] | IC50 (HepG2) [7] [µg/mL] | MIC P. aeruginosa LMG6395 [1, 8] [µg/mL] | MIC E. cloacae LMG2783T [2, 8] [µg/mL] | MIC S. aureus LMG15975 [3, 8] [µg/mL] | MIC K. pneumonia LMG20218 [4, 8] [µg/mL] | IC50 (HepG2) ([7]; HepG2, determined by a CRO) [µg/mL] | MIC A. baumannii LMG1041T [5, 8] [µg/mL] | MIC E. coli LMG15862 [6, 8] [µg/mL]
1 | C/C=C1/NC(=O)[C@H](CCN)NC(=O)[C@H](CC(C)C)NC(=O)[C@H](CN)NC(=O)C[C@@H](CC=CCCCCCC)OC(=O)[C@H](CC(=O)O)NC(=O)[C@H](C(C)(C)O)NC(=O)[C@@H](Cc2ccccc2)NC(=O)[C@H](CN)NC(=O)[C@H]([C@@H](C)O)NC1=O [U756, cyclo-((R)-3-hydroxydodec-5-enoyl-L-DAPA-L-Leu-L-DABA-ABA-L-Thr-L-DAPA-D-Phe-L-OHVal-L-Asp)] ([Dap]L[Dab][X1]T[Dap][dF][Val(3-OH)]D; linker N-C via X4) | 4 (≈ 3.5 µM) | 2 (≈ 1.75 µM) | 4 (≈ 3.5 µM) | 2 (≈ 1.75 µM) | 1 (≈ 0.875 µM) | 1 (≈ 0.875 µM) |  |  |  |  |  |  |  | 
2 | C/C=C1/NC(=O)[C@H](CCN)NC(=O)[C@H](CC(C)C)NC(=O)[C@H](CN)NC(=O)C[C@@H](CCCCCCCC(C)C)OC(=O)[C@H](CC(=O)O)NC(=O)[C@H](C(C)C)NC(=O)[C@@H](Cc2ccccc2)NC(=O)[C@H](CN)NC(=O)[C@H]([C@@H](C)O)NC1=O [U793, cyclo-((R)-3-hydroxy-11-methyldodecanoyl-L-DAPA-L-Leu-L-DABA-ABA-L-Thr-L-DAPA-D-Phe-L-Val-L-Asp)] ([Dap]L[Dab][X1]T[Dap][dF]VD; linker N-C via X3) | 8 (≈ 7 µM) | 16 (≈ 14 µM) | >32 | >32 | 4 (≈ 3.5 µM) | 4 (≈ 3.5 µM) | 9 (≈ 7.87 µM) |  |  |  |  |  |  | 
3 | Table 2 cyclic lipodepsipeptide: R C7H15; DAPA-Leu-DABA-ABA-Thr-DAPA-Phe-OHVal-Asp [U744] |  |  |  |  |  |  |  | 16 | 16 | >32 | 8 | 72 | 16 | 16
4 | Table 2 cyclic lipodepsipeptide: R C8H17; DAPA-Leu-DABA-ABA-Thr-DAPA-Phe-OHVal-Asp [U755a] |  |  |  |  |  |  |  | 8 | 8 | 16 | 8 | 39 | 8 | 8
5 | Table 2 cyclic lipodepsipeptide: R C8H17; DAPA-Leu-DABA-ABA-Thr-DAPA-Phe-OHVal-Asp [U755b] |  |  |  |  |  |  |  | 4 | 2 | 16 | 8 | 34 | 2 | 8
6 | Table 2 cyclic lipodepsipeptide: R C9H17; DAPA-Leu-DABA-ABA-Thr-Asn-Phe-Val-Asp [U826] |  |  |  |  |  |  |  | 16 | 16 | 16 | >32 | 23 | 8 | 8
7 | Table 2 cyclic lipodepsipeptide: R C9H17; DAPA-Leu-DABA-ABA-Thr-DAPA-Phe-OHVal-Asp [U757] |  |  |  |  |  |  |  | 8 | 8 | 16 | 8 | 28 | 4 | 8
8 | Table 2 cyclic lipodepsipeptide: R C9H17; DAPA-Leu-DABA-ABA-Thr-DAPA-Phe-Val-Asp [U771] |  |  |  |  |  |  |  | 2 | 2 | 2 | 2 | 9 | 1 | 1
9 | Table 2 cyclic lipodepsipeptide: R C9H17; DAPA-Leu-DABA-ABA-Thr-DAPA-Phe-Val-Asp [U775] |  |  |  |  |  |  |  | 4 | 4 | 16 | 16 | 9 | 8 | 4
10 | Table 2 cyclic lipodepsipeptide: R C10H21; DAPA-Leu-DABA-ABA-Thr-DAPA-Phe-Val-Asp [U800] |  |  |  |  |  |  |  | 16 | 8 | 16 | >32 | 12 | 8 | 8

More lines, now with the values ahead:

Row | MIC P. aeruginosa LMG6395 [1] [µg/mL] | MIC E. cloacae LMG2783T [2] [µg/mL] | MIC S. aureus LMG15975 [3] [µg/mL] | MIC K. pneumonia LMG20218 [4] [µg/mL] | MIC A. baumannii LMG1041T [5] [µg/mL] | MIC E. coli LMG15862 [6] [µg/mL] | IC50 (HepG2) [7] [µg/mL] | MIC P. aeruginosa LMG6395 [1, 8] [µg/mL] | MIC E. cloacae LMG2783T [2, 8] [µg/mL] | MIC S. aureus LMG15975 [3, 8] [µg/mL] | MIC K. pneumonia LMG20218 [4, 8] [µg/mL] | IC50 (HepG2) ([7]; HepG2, determined by a CRO) [µg/mL] | MIC A. baumannii LMG1041T [5, 8] [µg/mL] | MIC E. coli LMG15862 [6, 8] [µg/mL] | Compound
11 | 8 (≈ 6.9 µM) | 8 (≈ 6.9 µM) | 16 (≈ 13.8 µM) | 16 (≈ 13.8 µM) | 4 (≈ 3.45 µM) | 2 (≈ 1.73 µM) | 8 (≈ 6.9 µM) |  |  |  |  |  |  |  | C/C=C1/NC(=O)[C@H](CCN)NC(=O)[C@H](CC(C)C)NC(=O)[C@H](CN)NC(=O)C[C@@H](CCCCCCCC(C)C)OC(=O)[C@H](CC(=O)O)NC(=O)[C@H](C(C)(C)O)NC(=O)[C@@H](Cc2ccccc2)NC(=O)[C@H](CN)NC(=O)[C@H]([C@@H](C)O)NC1=O [U773, cyclo-((R)-3-hydroxy-11-methyldodecanoyl-L-DAPA-L-Leu-L-DABA-ABA-L-Thr-L-DAPA-D-Phe-L-OHVal-L-Asp)] ([Dap]L[Dab][X1]T[Dap][dF][Val(3-OH)]D; linker N-C via X3)
12 | >32 | >32 | >32 | >32 | 16 (≈ 13.7 µM) | 16 (≈ 13.7 µM) | 35 (≈ 29.9 µM) |  |  |  |  |  |  |  | C/C=C1/NC(=O)[C@H](CCN)NC(=O)[C@H](CC(C)C)NC(=O)[C@H](CC(N)=O)NC(=O)C[C@@H](CCCCCCCC(C)C)OC(=O)[C@H](CC(=O)O)NC(=O)[C@H](C(C)C)NC(=O)[C@@H](Cc2ccccc2)NC(=O)[C@H](CN)NC(=O)[C@H]([C@@H](C)O)NC1=O [U824, cyclo-((R)-3-hydroxy-11-methyldodecanoyl-L-Asn-L-Leu-L-DABA-ABA-L-Thr-L-DAPA-D-Phe-L-Val-L-Asp)] (NL[Dab][X1]T[Dap][dF]VD; linker N-C via X3)
13 |  |  |  |  |  |  |  | 8 | 4 | 16 | 4 | 29 | 4 | 2 | Table 2 cyclic lipodepsipeptide: R C8H17; DAPA-Leu-DABA-ABA-Thr-DAPA-Phe-OHVal-Asp [U751]
14 |  |  |  |  |  |  |  | 8 | 4 | 8 | 4 | 20 | 2 | 4 | Table 2 cyclic lipodepsipeptide: R C8H17; DAPA-Leu-DABA-ABA-Thr-DAPA-Phe-OHVal-Asp [U754]
15 |  |  |  |  |  |  |  | >32 | 8 | 16 | >32 | 15 | 8 | 8 | Table 2 cyclic lipodepsipeptide: R C10H21; Asn-Leu-DABA-ABA-Thr-DAPA-Phe-OHVal-Asp [U810]
16 |  |  |  |  |  |  |  | 16 | >32 | 8 | >32 | 22 | 8 | 16 | Table 2 cyclic lipodepsipeptide: R C10H21; Asn-Leu-DABA-ABA-Thr-DAPA-Phe-Val-Asp [U842]

From patent US20210269483A1, “PEPTIDE COMPOUNDS” (ULTUPHARMA AB, priority 2018, published 2021)
